Measured values as given in the NIST ThermoML archive (doi:10.1016/j.jct.2010.07.016).

Columns and labels:
[1] = excess molar enthalpy (molar enthalpy of mixing); xn = mol fraction of the nth substance listed; details: 308.15 K, 101 kPa, Liquid, Drop calorimeter
[2] = xn = mol fraction of the nth substance listed; details: 308.15 K, 101 kPa, Liquid; for excess molar volume: Direct dilatometry; for speed of sound: Linear variable-path acoustic interferometer

Cc1cccc(C)c1 [1,3-dimethylbenzene] + C1CCOCC1
Details	excess molar enthalpy [kJ/mol]	excess molar volume [m3/mol]	speed of sound [m/s]
[1], x2 = 0.0474	-0.0183	–	–
[1], x2 = 0.086	-0.0297	–	–
[1], x2 = 0.1141	-0.0361	–	–
[1], x2 = 0.1754	-0.0448	–	–
[1], x2 = 0.26	-0.0462	–	–
[1], x2 = 0.3488	-0.0365	–	–
[1], x2 = 0.4432	-0.0174	–	–
[1], x2 = 0.4765	-0.0092	–	–
[1], x2 = 0.5624	0.013	–	–
[1], x2 = 0.6834	0.0409	–	–
[1], x2 = 0.7603	0.0512	–	–
[1], x2 = 0.8001	0.0527	–	–
[1], x2 = 0.8744	0.0467	–	–
[1], x2 = 0.9453	0.0269	–	–
[2], x2 = 0.0626	–	-6e-09	–
[2], x2 = 0.0923	–	–	1277
[2], x2 = 0.1258	–	-1.2e-08	–
[2], x2 = 0.1515	–	–	1273
[2], x2 = 0.1731	–	-1.7e-08	–
[2], x2 = 0.2161	–	–	1269
[2], x2 = 0.2459	–	-2.2e-08	–
[2], x2 = 0.285	–	–	1264
[2], x2 = 0.3278	–	–	1261
[2], x2 = 0.3452	–	-2.8e-08	–
[2], x2 = 0.3611	–	–	1259
[2], x2 = 0.4081	–	–	1256
[2], x2 = 0.4411	–	-3.2e-08	–
[2], x2 = 0.4621	–	–	1253
[2], x2 = 0.4801	–	-3.2e-08	–
[2], x2 = 0.5179	–	–	1250
[2], x2 = 0.5413	–	-3.2e-08	–
[2], x2 = 0.5568	–	–	1248
[2], x2 = 0.6033	–	-3.2e-08	–
[2], x2 = 0.6179	–	–	1244
[2], x2 = 0.6541	–	-3e-08	–
[2], x2 = 0.7078	–	–	1239
[2], x2 = 0.7113	–	-2.7e-08	–
[2], x2 = 0.7852	–	-2.2e-08	–
[2], x2 = 0.7889	–	–	1235
[2], x2 = 0.8646	–	–	1231
[2], x2 = 0.8934	–	-1.2e-08	–
[2], x2 = 0.9229	–	-9e-09	–

C1CCOCC1 [tetrahydropyran] + Cc1ccc(C)cc1
Details	excess molar enthalpy [kJ/mol]	excess molar volume [m3/mol]	speed of sound [m/s]
[1], x1 = 0.0804	-0.0286	–	–
[1], x1 = 0.1402	-0.0533	–	–
[1], x1 = 0.2416	-0.0944	–	–
[1], x1 = 0.3002	-0.115	–	–
[1], x1 = 0.3842	-0.136	–	–
[1], x1 = 0.4706	-0.146	–	–
[1], x1 = 0.5776	-0.14	–	–
[1], x1 = 0.6454	-0.126	–	–
[1], x1 = 0.6914	-0.113	–	–
[1], x1 = 0.7432	-0.0955	–	–
[1], x1 = 0.7919	-0.0767	–	–
[1], x1 = 0.8476	-0.054	–	–
[1], x1 = 0.9021	-0.0322	–	–
[1], x1 = 0.9415	-0.0177	–	–
[2], x1 = 0.0639	–	-2.2e-08	–
[2], x1 = 0.0784	–	–	1271
[2], x1 = 0.1503	–	-4.3e-08	–
[2], x1 = 0.1521	–	–	1267
[2], x1 = 0.2123	–	–	1263
[2], x1 = 0.2321	–	-5.5e-08	–
[2], x1 = 0.2835	–	-5.9e-08	–
[2], x1 = 0.2876	–	–	1258
[2], x1 = 0.3331	–	-6.1e-08	–
[2], x1 = 0.3342	–	–	1255
[2], x1 = 0.3832	–	-6.1e-08	–
[2], x1 = 0.4091	–	–	1251
[2], x1 = 0.4421	–	-6e-08	–
[2], x1 = 0.4953	–	–	1247
[2], x1 = 0.5127	–	-5.7e-08	–
[2], x1 = 0.5186	–	–	1245
[2], x1 = 0.5515	–	-5.4e-08	–
[2], x1 = 0.5684	–	–	1243
[2], x1 = 0.6027	–	-4.9e-08	–
[2], x1 = 0.6175	–	–	1241
[2], x1 = 0.6529	–	-4.4e-08	–
[2], x1 = 0.7077	–	–	1237
[2], x1 = 0.7211	–	-3.6e-08	–
[2], x1 = 0.7905	–	-2.7e-08	–
[2], x1 = 0.7909	–	–	1233
[2], x1 = 0.8666	–	–	1230
[2], x1 = 0.8673	–	-1.7e-08	–
[2], x1 = 0.9354	–	–	1227

C1CCOCC1 [tetrahydropyran] + Cc1ccccc1
Details	excess molar enthalpy [kJ/mol]	excess molar volume [m3/mol]	speed of sound [m/s]
[1], x1 = 0.0445	-0.0285	–	–
[1], x1 = 0.0662	-0.0427	–	–
[1], x1 = 0.0837	-0.0541	–	–
[1], x1 = 0.1138	-0.0737	–	–
[1], x1 = 0.2154	-0.135	–	–
[1], x1 = 0.2806	-0.169	–	–
[1], x1 = 0.3031	-0.179	–	–
[1], x1 = 0.397	-0.21	–	–
[1], x1 = 0.5319	-0.223	–	–
[1], x1 = 0.6305	-0.206	–	–
[1], x1 = 0.7413	-0.163	–	–
[1], x1 = 0.8325	-0.112	–	–
[1], x1 = 0.9352	-0.0445	–	–
[1], x1 = 0.9727	-0.0187	–	–
[2], x1 = 0.0554	–	-3.1e-08	–
[2], x1 = 0.0673	–	-3.7e-08	–
[2], x1 = 0.085	–	-4.6e-08	–
[2], x1 = 0.0925	–	–	1259
[2], x1 = 0.1343	–	–	1258
[2], x1 = 0.1534	–	-7.9e-08	–
[2], x1 = 0.1789	–	–	1257
[2], x1 = 0.1861	–	-9.2e-08	–
[2], x1 = 0.2311	–	-1.1e-07	–
[2], x1 = 0.2587	–	–	1256
[2], x1 = 0.2942	–	-1.29e-07	–
[2], x1 = 0.3742	–	–	1254
[2], x1 = 0.4109	–	-1.53e-07	–
[2], x1 = 0.4263	–	–	1253
[2], x1 = 0.4815	–	–	1251
[2], x1 = 0.5187	–	–	1250
[2], x1 = 0.5273	–	-1.59e-07	–
[2], x1 = 0.5795	–	–	1248
[2], x1 = 0.6433	–	-1.46e-07	–
[2], x1 = 0.6765	–	–	1243
[2], x1 = 0.7122	–	–	1242
[2], x1 = 0.7215	–	-1.27e-07	–
[2], x1 = 0.7646	–	–	1239
[2], x1 = 0.8202	–	-9.3e-08	–
[2], x1 = 0.8487	–	–	1234
[2], x1 = 0.9252	–	–	1229
[2], x1 = 0.9297	–	-4e-08	–
[2], x1 = 0.9735	–	-1.6e-08	–

Cc1ccccc1C [1,2-dimethylbenzene] + C1CCOCC1
Details	excess molar enthalpy [kJ/mol]	excess molar volume [m3/mol]	speed of sound [m/s]
[1], x2 = 0.0587	-0.0266	–	–
[1], x2 = 0.0691	-0.0305	–	–
[1], x2 = 0.0838	-0.0356	–	–
[1], x2 = 0.1451	-0.0516	–	–
[1], x2 = 0.1809	-0.0573	–	–
[1], x2 = 0.2454	-0.0613	–	–
[1], x2 = 0.3023	-0.0588	–	–
[1], x2 = 0.3872	-0.0465	–	–
[1], x2 = 0.4425	-0.0342	–	–
[1], x2 = 0.5752	0.0024	–	–
[1], x2 = 0.647	0.022	–	–
[1], x2 = 0.7443	0.0421	–	–
[1], x2 = 0.8495	0.0467	–	–
[1], x2 = 0.9437	0.0267	–	–
[2], x2 = 0.0536	–	-1.2e-08	–
[2], x2 = 0.0643	–	-1.4e-08	–
[2], x2 = 0.0805	–	-1.7e-08	–
[2], x2 = 0.0854	–	–	1319
[2], x2 = 0.1127	–	-2.3e-08	–
[2], x2 = 0.1494	–	–	1315
[2], x2 = 0.1816	–	-3.4e-08	–
[2], x2 = 0.2134	–	–	1309
[2], x2 = 0.2834	–	–	1303
[2], x2 = 0.2975	–	-4.7e-08	–
[2], x2 = 0.3778	–	–	1293
[2], x2 = 0.3954	–	-5.3e-08	–
[2], x2 = 0.4756	–	–	1281
[2], x2 = 0.4935	–	-5.5e-08	–
[2], x2 = 0.5132	–	–	1277
[2], x2 = 0.52	–	-5.4e-08	–
[2], x2 = 0.5642	–	-5.3e-08	–
[2], x2 = 0.5668	–	–	1270
[2], x2 = 0.6124	–	–	1265
[2], x2 = 0.6421	–	-4.8e-08	–
[2], x2 = 0.7035	–	–	1254
[2], x2 = 0.7314	–	-4e-08	–
[2], x2 = 0.7866	–	–	1245
[2], x2 = 0.8645	–	–	1237
[2], x2 = 0.8832	–	-1.9e-08	–
[2], x2 = 0.9228	–	-1.3e-08	–
[2], x2 = 0.9344	–	–	1230
[2], x2 = 0.9545	–	–	1228

C1CCOCC1 [tetrahydropyran] + c1ccccc1
Details	excess molar enthalpy [kJ/mol]	excess molar volume [m3/mol]	speed of sound [m/s]
[1], x1 = 0.0484	-0.0326	–	–
[1], x1 = 0.0757	-0.0516	–	–
[1], x1 = 0.0978	-0.0671	–	–
[1], x1 = 0.1432	-0.0985	–	–
[1], x1 = 0.2425	-0.161	–	–
[1], x1 = 0.311	-0.195	–	–
[1], x1 = 0.385	-0.222	–	–
[1], x1 = 0.4982	-0.236	–	–
[1], x1 = 0.6013	-0.222	–	–
[1], x1 = 0.6875	-0.191	–	–
[1], x1 = 0.7073	-0.182	–	–
[1], x1 = 0.7832	-0.14	–	–
[1], x1 = 0.8501	-0.0974	–	–
[1], x1 = 0.923	-0.0488	–	–
[2], x1 = 0.0555	–	–	1256
[2], x1 = 0.0684	–	-4.9e-08	–
[2], x1 = 0.1029	–	-6.9e-08	–
[2], x1 = 0.1165	–	–	1253
[2], x1 = 0.1472	–	–	1251
[2], x1 = 0.1673	–	-1.01e-07	–
[2], x1 = 0.1835	–	-1.08e-07	–
[2], x1 = 0.2223	–	–	1248
[2], x1 = 0.243	–	-1.29e-07	–
[2], x1 = 0.2728	–	–	1246
[2], x1 = 0.3143	–	-1.45e-07	–
[2], x1 = 0.3751	–	–	1241
[2], x1 = 0.4085	–	-1.56e-07	–
[2], x1 = 0.4395	–	–	1239
[2], x1 = 0.4821	–	–	1237
[2], x1 = 0.5291	–	-1.52e-07	–
[2], x1 = 0.5313	–	–	1238
[2], x1 = 0.599	–	-1.42e-07	–
[2], x1 = 0.6223	–	–	1233
[2], x1 = 0.6543	–	-1.3e-07	–
[2], x1 = 0.681	–	–	1231
[2], x1 = 0.7321	–	–	1230
[2], x1 = 0.7452	–	-1.05e-07	–
[2], x1 = 0.7823	–	-9.3e-08	–
[2], x1 = 0.8253	–	–	1228
[2], x1 = 0.8754	–	-5.7e-08	–
[2], x1 = 0.9123	–	–	1226
[2], x1 = 0.9539	–	-2.3e-08	–
